Data on 14 molecules can be found in patent US10829438B2, “Neprilysin inhibitors” (THERAVANCE BIOPHARMA R&D IP, LLC, priority 2012, dated 2020).

Chain of human NEP (P08473 52-750): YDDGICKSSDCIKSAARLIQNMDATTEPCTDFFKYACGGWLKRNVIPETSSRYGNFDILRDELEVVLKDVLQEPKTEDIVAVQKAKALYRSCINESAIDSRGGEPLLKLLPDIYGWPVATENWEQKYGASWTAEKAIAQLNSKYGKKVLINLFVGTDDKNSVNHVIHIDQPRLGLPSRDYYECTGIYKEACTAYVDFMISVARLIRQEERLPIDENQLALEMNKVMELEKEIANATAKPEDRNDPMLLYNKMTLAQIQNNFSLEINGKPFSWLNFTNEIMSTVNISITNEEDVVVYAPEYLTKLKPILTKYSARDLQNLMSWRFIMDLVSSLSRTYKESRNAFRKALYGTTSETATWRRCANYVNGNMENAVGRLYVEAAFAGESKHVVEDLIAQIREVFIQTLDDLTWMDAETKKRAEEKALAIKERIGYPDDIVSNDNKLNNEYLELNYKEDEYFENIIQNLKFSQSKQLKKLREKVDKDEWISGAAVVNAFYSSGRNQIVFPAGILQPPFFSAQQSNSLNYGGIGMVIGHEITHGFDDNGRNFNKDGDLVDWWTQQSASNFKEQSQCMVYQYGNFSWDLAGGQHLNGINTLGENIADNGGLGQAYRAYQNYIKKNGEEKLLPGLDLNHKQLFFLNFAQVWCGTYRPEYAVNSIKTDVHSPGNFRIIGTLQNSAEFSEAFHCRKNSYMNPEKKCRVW

One assay has as its target human NEP (Homo sapiens (Human), UniProt P08473). Kind of assay: In vitro enzyme inhibition assay at human NEP (fluorogenic peptide substrate). Type of assay: biochemical.
Conditions: not given
The protocol:
In Vitro Assays for the Quantitation of Inhibitor Potencies (IC50) at Human and Rat NEP, and Human ACE
The inhibitory activities of compounds at human and rat neprilysin (EC 3.4.24.11; NEP) and human angiotensin converting enzyme (ACE) were determined using in vitro assays as described below.
Recombinant human NEP and recombinant human ACE were obtained commercially (R&D Systems, Minneapolis, Minn., catalog numbers 1182-ZN and 929-ZN, respectively). The fluorogenic peptide substrate Mca-D-Arg-Arg-Leu-Dap-(Dnp)-OH (Medeiros et al. (1997) Braz. J. Med. Biol. Res. 30:1157-62; Anaspec, San Jose, Calif.) and Abz-Phe-Arg-Lys(Dnp)-Pro-OH (Araujo et al. (2000) Biochemistry 39:8519-8525; Bachem, Torrance, Calif.) were used in the NEP and ACE assays respectively.
The assays were performed in 384-well white opaque plates at 37° C. using the fluorogenic peptide substrates at a concentration of 10 μM in Assay Buffer (NEP: 50 mM HEPES, pH 7.5, 100 mM NaCl, 0.01% polyethylene glycol sorbitan monolaurate (Tween-20), 10 μM ZnSO4; ACE: 50 mM HEPES, pH 7.5, 100 mM NaCl, 0.01% Tween-20, 1 μM ZnSO4).
Test compounds were assayed over the range of concentrations from […] to 20 μM. Test compounds were added to the enzymes and incubated for 30 minute at 37° C. prior to initiating the reaction by the addition of substrate. Reactions were terminated after 20 minutes of incubation at 37° C. by the addition of glacial acetic acid to a final concentration of 3.6% (v/v).
Plates were read on a fluorometer with excitation and emission wavelengths set to 320 nm and 405 nm, respectively. Inhibition constants were obtained by nonlinear regression of the data using the equation (GraphPad Software, Inc., San Diego, Calif.): v=v0/[1+(I/K′)] where v is the reaction rate, v0 is the uninhibited reaction rate, I is the inhibitor concentration and K′ is the apparent inhibition constant.
Regarding `O=C(N[C@H](Cc1ccc(-c2cccc(Cl)c2)cc1)C[C@@H](O)C(=O)O)c1ccc2nnn(OCc3ccccc3)c2c1` [Example 1I, (2R,4R)-4-[(3-Benzyloxy-3H-benzotriazole-5-carbonyl)amino]-5-(3′-chlorobiphenyl-4-yl)-2-hydroxypentanoic Acid], the Ki was 12.6 to 100 nM.

Staying with this assay, now noted: recombinant human NEP; 30 minute pre-incubation at 37° C.; fluorogenic substrate 10 μM.
In the case of `CC(=O)OCOn1nnc2ccc(C(=O)N[C@H](Cc3ccc(-c4cccc(Cl)c4)cc3)C[C@@H](O)C(=O)O)cc21` [Example 1G, (2R,4R)-4-[(3-Acetoxymethoxy-3H-benzotriazole-5-carbonyl)amino]-5-(3′-chlorobiphenyl-4-yl)-2-hydroxypentanoic Acid], the “pKi value at human NEP” value is at least 9.0.
Turning to `CC(C)[C@@H](N)C(=O)OCOn1nnc2ccc(C(=O)N[C@H](Cc3ccc(-c4cccc(Cl)c4)cc3)C[C@@H](O)C(=O)O)cc21` [Example 1L, (2R,4R)-4-{[3-((R)-2-Amino-3-methylbutyryloxymethoxy)-3H-benzotriazole-5-carbonyl]amino}-5-(3′-chlorobiphenyl-4-yl)-2-hydroxy-pentanoic Acid], the “pKi value at human NEP” value is given as at least 9.0.
Regarding `O=C(N[C@H](Cc1ccc(-c2cccc(Cl)c2)cc1)C[C@@H](O)C(=O)O)c1cc(-c2ccccc2F)no1` [Example 6A, (2R,4R)-5-(3′-Chlorobiphenyl-4-yl)-4-{[3-(2-fluorophenyl)isoxazole-5-carbonyl]amino}-2-hydroxypentanoic Acid], the “pKi value at human NEP” value is reported as at least 9.0.

Still in this assay, the particulars now being: recombinant human NEP; 30 minute pre-incubation at 37° C.; fluorogenic substrate 10 μM; read-out: pKi value at human NEP (converted).
As to `O=C(N[C@H](Cc1ccc(-c2cccc(Cl)c2)cc1)C[C@@H](O)C(=O)O)c1ccc2nnn(O)c2c1` [Example 1A, (2R,4R)-5-(3′-Chlorobiphenyl-4-yl)-2-hydroxy-4-[(3-hydroxy-3H-benzotriazole-5-carbonyl)amino]pentanoic Acid], the Ki was at most 1 nM.
Take `CCCC(=O)OCOn1nnc2ccc(C(=O)N[C@H](Cc3ccc(-c4cccc(Cl)c4)cc3)C[C@@H](O)C(=O)O)cc21` [Example 1M, (2R,4R)-4-[(3-Butyryloxymethoxy-3H-benzotriazole-5-carbonyl)amino]-5-(3′-chlorobiphenyl-4-yl)-2-hydroxypentanoic Acid]: the Ki is 1.26 to 10 nM.
Same read-out and setting: the same measure for `Cn1nc(C(=O)N[C@H](Cc2ccc(-c3cccc(Cl)c3)cc2)C[C@@H](O)C(=O)O)cc1O` [Example 2A, (2R,4R)-5-(3′-Chlorobiphenyl-4-yl)-2-hydroxy-4-[(5-hydroxy-1-methyl-1H-pyrazole-3-carbonyl)amino]pentanoic Acid]: at most 1 nM; for `O=C(N[C@H](Cc1ccc(-c2cccc(Cl)c2)cc1)C[C@@H](O)C(=O)O)c1cc(O)n(-c2ccccn2)n1` [Example 3A, (2R,4R)-5-(3′-Chlorobiphenyl-4-yl)-2-hydroxy-4-[(5-hydroxy-1-pyridin-2-yl-1H-pyrazole-3-carbonyl)amino]pentanoic Acid]: at most 1 nM; for `CC(=O)c1cc(C(=O)N[C@H](Cc2ccc(-c3cc(Cl)ccc3F)cc2)C[C@@H](O)C(=O)O)n[nH]1` [Example 4B, (2R,4R)-4-[(5-Acetyl-1H-pyrazole-3-carbonyl)amino]-5-(5′-chloro-2′-fluorobiphenyl-4-yl)-2-hydroxypentanoic Acid]: at most 1 nM.
As for `CC(=O)c1cc(C(=O)N[C@H](Cc2ccc(-c3cccc(Cl)c3)cc2)C[C@@H](O)C(=O)O)n[nH]1` [Example 5B, (2R,4R)-4-[(5-Acetyl-1H-pyrazole-3-carbonyl)amino]-5-(3′-chlorobiphenyl-4-l)-2-hydroxypentanoic Acid], the Ki is at most 1 nM.
As for `COc1cc(C(=O)N[C@H](Cc2ccc(-c3cccc(Cl)c3)cc2)C[C@@H](O)C(=O)O)on1` [Example 7A, (2R,4R)-5-(3′-Chlorobiphenyl-4-yl)-2-hydroxy-4-[(3-methoxyisoxazole-5-carbonyl)amino]pentanoic Acid], the Ki was at most 1 nM.
Consider `O=C(N[C@H](Cc1ccc(-c2cc(Cl)ccc2F)cc1)C[C@@H](O)C(=O)O)c1cn(O)nn1` [Example 8A, (2R,4R)-5-(5′-Chloro-2′-fluorobiphenyl-4-yl)-2-hydroxy-4-[(1-hydroxy-1H-[1,2,3]triazole-4-carbonyl)amino]pentanoic Acid], for which the Ki was at most 1 nM.
For the molecule `O=C(N[C@H](Cc1ccc(-c2cccc(Cl)c2)cc1)C[C@@H](O)C(=O)O)c1nn(-c2ccccc2)c(=O)[nH]1` [Example 9A, (2R,4R)-5-(3′-Chlorobiphenyl-4-yl)-2-hydroxy-4-[(5-oxo-1-phenyl-4,5-dihydro-1H-[1,2,4]triazole-3-carbonyl)amino]pentanoic Acid], the Ki is at most 1 nM.
Turning to `CC(=O)c1cc(C(=O)N[C@H](Cc2ccc(-c3ccccc3)cc2)C[C@@H](O)C(=O)O)[nH]n1` [formula X′, (2R,4R)-4-[(5-acetyl-2H-pyrazole-3-carbonyl)amino]-5-biphenyl-4-yl-2-hydroxypentanoic acid], the Ki was at most 1 nM.
